Tests used:
Assay in all cases: KINOMEscan
Format in all cases: binding
[1] = molecular target: T1, CHEK2 (Homo sapiens, UniProt O96017); conditions: 35 at 1 µM; read-out: % inhibition
T1 construct: purchased Eurofins DiscoverX (KINOMEscan)
Protocol: (§1) KinomeScan Assay on 35 was performed as previously described at EuroFins DiscoverX (Fremont, CA, USA).

[2] = molecular target: T2, PRKD2 (Homo sapiens, UniProt Q9BZL6); conditions: 35 at 1 µM; read-out: % inhibition
T2 construct: purchased Eurofins DiscoverX (KINOMEscan)
Protocol: as §1

[3] = molecular target: T3, KIT (Homo sapiens, UniProt P10721); conditions: 35 at 1 µM; read-out: % inhibition
T3 construct: purchased Eurofins DiscoverX (KINOMEscan)
Protocol: as §1

[4] = molecular target: T4, MRCKB (Homo sapiens, UniProt Q9Y5S2); conditions: 35 at 1 µM; read-out: % inhibition
T4 construct: purchased Eurofins DiscoverX (KINOMEscan)
Protocol: as §1

[5] = molecular target: T5, BMX (Homo sapiens, UniProt P51813); conditions: 35 at 1 µM; read-out: % inhibition
T5 construct: purchased Eurofins DiscoverX (KINOMEscan)
Protocol: as §1

[6] = molecular target: T6, WEE1 (Homo sapiens, UniProt P30291); conditions: 35 at 1 µM; read-out: % inhibition
T6 construct: purchased EuroFins DiscoverX (Fremont, CA, USA)
Protocol: as §1

[7] = molecular target: T7, CAMK2D (Homo sapiens, UniProt Q13557); conditions: 35 at 1 µM; read-out: % inhibition
T7 construct: purchased Eurofins DiscoverX (KINOMEscan)
Protocol: as §1

[8] = molecular target: T8, MAP3K4 (Homo sapiens, UniProt Q9Y6R4); conditions: 35 at 1 µM; read-out: % inhibition
T8 construct: purchased Eurofins DiscoverX (KINOMEscan)
Protocol: as §1

[9] = molecular target: T9, KIT(V559D,T670I) (Homo sapiens, UniProt P10721, T670I/V559D); conditions: 35 at 1 µM; read-out: % inhibition
T9 construct: purchased Eurofins DiscoverX (KINOMEscan)
Protocol: as §1

[10] = molecular target: T10, PFCDPK1(P.falciparum) (Plasmodium falciparum, UniProt P62344); conditions: read-out: % inhibition
T10 construct: purchased Eurofins DiscoverX (KINOMEscan)
T10 sequence (P62344 whole entry): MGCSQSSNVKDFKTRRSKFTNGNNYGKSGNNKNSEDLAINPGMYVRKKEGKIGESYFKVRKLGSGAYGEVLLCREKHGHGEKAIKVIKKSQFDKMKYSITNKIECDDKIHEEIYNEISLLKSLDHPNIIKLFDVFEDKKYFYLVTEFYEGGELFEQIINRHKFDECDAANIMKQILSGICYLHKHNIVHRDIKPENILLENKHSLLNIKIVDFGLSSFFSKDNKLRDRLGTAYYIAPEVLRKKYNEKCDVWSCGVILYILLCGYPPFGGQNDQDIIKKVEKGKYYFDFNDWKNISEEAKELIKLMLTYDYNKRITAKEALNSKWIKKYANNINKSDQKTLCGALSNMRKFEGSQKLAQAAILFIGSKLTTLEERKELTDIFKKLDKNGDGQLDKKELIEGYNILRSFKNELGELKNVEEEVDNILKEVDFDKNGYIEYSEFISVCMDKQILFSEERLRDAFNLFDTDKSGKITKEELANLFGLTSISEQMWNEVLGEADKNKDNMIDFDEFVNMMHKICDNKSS
Protocol: as §1

[11] = molecular target: T11, ALK(L1196M) (Homo sapiens, UniProt Q9UM73, L1196M); conditions: 35 at 1 µM; read-out: % inhibition
T11 construct: purchased Eurofins DiscoverX (KINOMEscan)
Protocol: as §1

[12] = molecular target: T12, PAK7 (Homo sapiens, UniProt Q9P286); conditions: 35 at 1 µM; read-out: % inhibition
T12 construct: purchased Eurofins DiscoverX (KINOMEscan)
Protocol: as §1

[13] = molecular target: T13, ACVR1B (Homo sapiens, UniProt P36896); conditions: 35 at 1 µM; read-out: % inhibition
T13 construct: purchased Eurofins DiscoverX (KINOMEscan)
Protocol: as §1

[14] = molecular target: T14, OSR1 (Homo sapiens, UniProt O95747); conditions: 35 at 1 µM; read-out: % inhibition
T14 construct: purchased Eurofins DiscoverX (KINOMEscan)
Protocol: as §1

[15] = molecular target: T15, ERK8 (Homo sapiens, UniProt Q8TD08); conditions: 35 at 1 µM; read-out: % inhibition
T15 construct: purchased Eurofins DiscoverX (KINOMEscan)
T15 sequence (Q8TD08 whole entry): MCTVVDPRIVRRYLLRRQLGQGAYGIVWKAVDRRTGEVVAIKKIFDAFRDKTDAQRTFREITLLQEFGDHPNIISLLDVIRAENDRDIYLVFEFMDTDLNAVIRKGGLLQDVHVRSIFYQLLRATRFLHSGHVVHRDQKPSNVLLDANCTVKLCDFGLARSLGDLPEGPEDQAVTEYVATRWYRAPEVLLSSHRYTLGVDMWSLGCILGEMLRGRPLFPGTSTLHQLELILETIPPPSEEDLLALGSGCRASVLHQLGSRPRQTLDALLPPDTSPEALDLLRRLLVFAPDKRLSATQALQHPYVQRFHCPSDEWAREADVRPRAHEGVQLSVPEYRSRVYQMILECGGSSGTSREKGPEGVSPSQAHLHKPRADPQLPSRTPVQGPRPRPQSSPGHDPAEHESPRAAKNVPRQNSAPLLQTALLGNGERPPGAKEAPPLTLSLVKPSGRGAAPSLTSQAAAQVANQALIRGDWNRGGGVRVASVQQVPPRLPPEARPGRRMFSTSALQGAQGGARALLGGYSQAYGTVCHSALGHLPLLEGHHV
Protocol: as §1

[16] = molecular target: T16, BRSK1 (Homo sapiens, UniProt Q8TDC3); conditions: 35 at 1 µM; read-out: % inhibition
T16 construct: purchased Eurofins DiscoverX (KINOMEscan)
Protocol: as §1

[17] = molecular target: T17, PFTAIRE2 (Homo sapiens, UniProt Q96Q40); conditions: 35 at 1 µM; read-out: % inhibition
T17 construct: purchased Eurofins DiscoverX (KINOMEscan)
Protocol: as §1

[18] = molecular target: T18, MYO3B (Homo sapiens, UniProt Q8WXR4); conditions: 35 at 1 µM; read-out: % inhibition
T18 construct: purchased Eurofins DiscoverX (KINOMEscan)
Protocol: as §1

[19] = molecular target: T19, PIP5K2B (Homo sapiens, UniProt P78356); conditions: 35 at 1 µM; read-out: % inhibition
T19 construct: purchased Eurofins DiscoverX (KINOMEscan)
Protocol: as §1

[20] = molecular target: T20, NDR1 (Homo sapiens, UniProt Q15208); conditions: 35 at 1 µM; read-out: % inhibition
T20 construct: purchased Eurofins DiscoverX (KINOMEscan)
T20 sequence (Q15208 whole entry): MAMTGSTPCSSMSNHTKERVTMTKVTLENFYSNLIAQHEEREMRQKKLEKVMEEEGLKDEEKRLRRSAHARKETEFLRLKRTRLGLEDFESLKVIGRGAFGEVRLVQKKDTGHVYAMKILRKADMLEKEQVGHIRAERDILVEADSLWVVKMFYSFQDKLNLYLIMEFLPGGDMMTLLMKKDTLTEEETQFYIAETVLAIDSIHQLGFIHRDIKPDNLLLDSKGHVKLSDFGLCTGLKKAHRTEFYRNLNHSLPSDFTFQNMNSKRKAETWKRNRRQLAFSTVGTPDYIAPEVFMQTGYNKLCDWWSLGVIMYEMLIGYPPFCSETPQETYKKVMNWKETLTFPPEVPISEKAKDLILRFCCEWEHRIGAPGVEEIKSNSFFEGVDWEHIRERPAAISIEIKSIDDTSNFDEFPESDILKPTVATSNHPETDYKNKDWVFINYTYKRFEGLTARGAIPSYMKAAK
Protocol: as §1

[21] = molecular target: T21, PIK3CA(H1047Y) (Homo sapiens, UniProt P42336, H1047Y); conditions: 35 at 1 µM; read-out: % inhibition
T21 construct: purchased Eurofins DiscoverX (KINOMEscan)
Protocol: as §1

[22] = molecular target: T22, GRK3 (Homo sapiens, UniProt P35626); conditions: 35 at 1 µM; read-out: % inhibition
T22 construct: purchased Eurofins DiscoverX (KINOMEscan)
Protocol: as §1

[23] = molecular target: T23, CLK2 (Homo sapiens, UniProt P49760); conditions: 35 at 1 µM; read-out: % inhibition
T23 construct: purchased Eurofins DiscoverX (KINOMEscan)
Protocol: as §1

[24] = molecular target: T24, CAMK4 (Homo sapiens, UniProt Q16566); conditions: 35 at 1 µM; read-out: % inhibition
T24 construct: purchased Eurofins DiscoverX (KINOMEscan)
T24 sequence (Q16566 whole entry): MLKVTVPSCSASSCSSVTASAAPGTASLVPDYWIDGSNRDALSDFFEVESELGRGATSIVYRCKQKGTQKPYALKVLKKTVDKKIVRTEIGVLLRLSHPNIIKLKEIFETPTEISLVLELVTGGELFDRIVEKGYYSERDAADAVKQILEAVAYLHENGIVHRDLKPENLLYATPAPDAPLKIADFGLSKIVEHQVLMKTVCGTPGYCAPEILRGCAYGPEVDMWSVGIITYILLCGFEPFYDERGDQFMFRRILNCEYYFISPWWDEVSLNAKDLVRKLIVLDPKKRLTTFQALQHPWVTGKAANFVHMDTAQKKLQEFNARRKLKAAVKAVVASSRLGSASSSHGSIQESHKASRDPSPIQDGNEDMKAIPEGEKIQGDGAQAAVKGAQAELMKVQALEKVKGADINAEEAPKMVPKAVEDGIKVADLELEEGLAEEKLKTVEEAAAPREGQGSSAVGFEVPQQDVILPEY
Protocol: as §1

[25] = molecular target: T25, ABL1-phosphorylated (Homo sapiens, UniProt P00519); conditions: 35 at 1 µM; read-out: % inhibition
T25 construct: purchased Eurofins DiscoverX (KINOMEscan)
Protocol: as §1

[26] = molecular target: T26, GRK2 (Homo sapiens, UniProt P25098); conditions: 35 at 1 µM; read-out: % inhibition
T26 construct: purchased Eurofins DiscoverX (KINOMEscan)
Protocol: as §1

[27] = molecular target: T27, PRKG2 (Homo sapiens, UniProt Q13237); conditions: 35 at 1 µM; read-out: % inhibition
T27 construct: purchased Eurofins DiscoverX (KINOMEscan)
Protocol: as §1

[28] = molecular target: T28, BTK (Homo sapiens, UniProt Q06187); conditions: 35 at 1 µM; read-out: % inhibition
T28 construct: purchased Eurofins DiscoverX (KINOMEscan)
Protocol: as §1

[29] = molecular target: T29, HIPK2 (Homo sapiens, UniProt Q9H2X6); conditions: 35 at 1 µM; read-out: % inhibition
T29 construct: purchased Eurofins DiscoverX (KINOMEscan)
Protocol: as §1

[30] = molecular target: T30, BRK (Homo sapiens, UniProt Q13882); conditions: 35 at 1 µM; read-out: % inhibition
T30 construct: purchased Eurofins DiscoverX (KINOMEscan)
Protocol: as §1

[31] = molecular target: T31, CSK (Homo sapiens, UniProt P41240); conditions: 35 at 1 µM; read-out: % inhibition
T31 construct: purchased Eurofins DiscoverX (KINOMEscan)
Protocol: as §1

[32] = molecular target: T32, AKT1 (Homo sapiens, UniProt P31749); conditions: 35 at 1 µM; read-out: % inhibition
T32 construct: purchased Eurofins DiscoverX (KINOMEscan)
T32 sequence (P31749 whole entry): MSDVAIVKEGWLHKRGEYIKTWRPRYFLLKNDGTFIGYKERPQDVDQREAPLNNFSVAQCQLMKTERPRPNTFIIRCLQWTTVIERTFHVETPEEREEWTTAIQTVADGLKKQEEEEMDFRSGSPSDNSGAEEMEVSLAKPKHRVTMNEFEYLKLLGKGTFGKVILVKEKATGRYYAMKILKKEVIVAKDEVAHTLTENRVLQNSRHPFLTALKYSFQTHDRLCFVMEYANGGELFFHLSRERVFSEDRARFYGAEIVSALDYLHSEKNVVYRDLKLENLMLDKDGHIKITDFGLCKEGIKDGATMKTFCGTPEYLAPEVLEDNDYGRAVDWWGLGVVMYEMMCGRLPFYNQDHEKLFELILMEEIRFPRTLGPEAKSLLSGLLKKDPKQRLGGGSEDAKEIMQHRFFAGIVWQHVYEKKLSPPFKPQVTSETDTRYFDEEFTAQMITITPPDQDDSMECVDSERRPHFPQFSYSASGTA
Protocol: as §1

[33] = molecular target: T33, MYLK2 (Homo sapiens, UniProt Q9H1R3); conditions: 35 at 1 µM; read-out: % inhibition
T33 construct: purchased Eurofins DiscoverX (KINOMEscan)
Protocol: as §1

[34] = molecular target: T34, TIE1 (Homo sapiens, UniProt P35590); conditions: 35 at 1 µM; read-out: % inhibition
T34 construct: purchased Eurofins DiscoverX (KINOMEscan)
Protocol: as §1

[35] = molecular target: T35, AURKA (Homo sapiens, UniProt O14965); conditions: 35 at 1 µM; read-out: % inhibition
T35 construct: purchased Eurofins DiscoverX (KINOMEscan)
T35 sequence (O14965 whole entry): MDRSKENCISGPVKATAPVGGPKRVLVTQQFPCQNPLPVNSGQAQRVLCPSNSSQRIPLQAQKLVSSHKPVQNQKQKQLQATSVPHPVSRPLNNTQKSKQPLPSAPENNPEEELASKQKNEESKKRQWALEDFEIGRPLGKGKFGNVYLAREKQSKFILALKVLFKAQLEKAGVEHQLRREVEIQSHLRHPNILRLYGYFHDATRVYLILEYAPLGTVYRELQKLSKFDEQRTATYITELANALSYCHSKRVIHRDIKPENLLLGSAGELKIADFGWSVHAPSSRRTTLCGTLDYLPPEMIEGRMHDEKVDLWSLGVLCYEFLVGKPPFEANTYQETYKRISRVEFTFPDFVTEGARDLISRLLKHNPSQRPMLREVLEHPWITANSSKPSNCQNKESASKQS
Protocol: as §1

[36] = molecular target: T36, PIKFYVE (Homo sapiens, UniProt Q9Y2I7); conditions: 35 at 1 µM; read-out: % inhibition
T36 construct: purchased Eurofins DiscoverX (KINOMEscan)
Protocol: as §1

[37] = molecular target: T37, ULK2 (Homo sapiens, UniProt Q8IYT8); conditions: 35 at 1 µM; read-out: % inhibition
T37 construct: purchased Eurofins DiscoverX (KINOMEscan)
Protocol: as §1

[38] = molecular target: T38, TBK1 (Homo sapiens, UniProt Q9UHD2); conditions: 35 at 1 µM; read-out: % inhibition
T38 construct: purchased Eurofins DiscoverX (KINOMEscan)
T38 sequence (Q9UHD2 whole entry): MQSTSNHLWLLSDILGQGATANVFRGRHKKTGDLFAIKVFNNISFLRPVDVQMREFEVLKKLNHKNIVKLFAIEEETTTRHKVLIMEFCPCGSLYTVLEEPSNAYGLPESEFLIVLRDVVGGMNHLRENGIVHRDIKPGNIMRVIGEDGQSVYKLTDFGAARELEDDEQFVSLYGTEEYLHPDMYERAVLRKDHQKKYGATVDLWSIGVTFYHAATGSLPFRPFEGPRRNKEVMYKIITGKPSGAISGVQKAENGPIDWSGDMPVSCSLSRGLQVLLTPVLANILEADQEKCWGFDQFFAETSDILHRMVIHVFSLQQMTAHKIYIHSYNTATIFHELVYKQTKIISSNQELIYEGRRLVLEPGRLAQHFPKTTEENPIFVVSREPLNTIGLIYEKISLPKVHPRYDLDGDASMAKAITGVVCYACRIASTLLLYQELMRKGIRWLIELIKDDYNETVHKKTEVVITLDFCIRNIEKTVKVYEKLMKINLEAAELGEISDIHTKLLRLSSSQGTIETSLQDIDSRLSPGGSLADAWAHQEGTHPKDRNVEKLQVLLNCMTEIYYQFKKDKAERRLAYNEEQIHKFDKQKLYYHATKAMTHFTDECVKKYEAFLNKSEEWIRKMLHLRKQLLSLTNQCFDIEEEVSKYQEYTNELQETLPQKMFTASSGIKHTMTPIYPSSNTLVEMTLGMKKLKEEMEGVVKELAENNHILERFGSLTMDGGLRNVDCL
Protocol: as §1

[39] = molecular target: T39, TRKB (Homo sapiens, UniProt Q16620); conditions: 35 at 1 µM; read-out: % inhibition
T39 construct: purchased Eurofins DiscoverX (KINOMEscan)
T39 sequence (Q16620 32-822): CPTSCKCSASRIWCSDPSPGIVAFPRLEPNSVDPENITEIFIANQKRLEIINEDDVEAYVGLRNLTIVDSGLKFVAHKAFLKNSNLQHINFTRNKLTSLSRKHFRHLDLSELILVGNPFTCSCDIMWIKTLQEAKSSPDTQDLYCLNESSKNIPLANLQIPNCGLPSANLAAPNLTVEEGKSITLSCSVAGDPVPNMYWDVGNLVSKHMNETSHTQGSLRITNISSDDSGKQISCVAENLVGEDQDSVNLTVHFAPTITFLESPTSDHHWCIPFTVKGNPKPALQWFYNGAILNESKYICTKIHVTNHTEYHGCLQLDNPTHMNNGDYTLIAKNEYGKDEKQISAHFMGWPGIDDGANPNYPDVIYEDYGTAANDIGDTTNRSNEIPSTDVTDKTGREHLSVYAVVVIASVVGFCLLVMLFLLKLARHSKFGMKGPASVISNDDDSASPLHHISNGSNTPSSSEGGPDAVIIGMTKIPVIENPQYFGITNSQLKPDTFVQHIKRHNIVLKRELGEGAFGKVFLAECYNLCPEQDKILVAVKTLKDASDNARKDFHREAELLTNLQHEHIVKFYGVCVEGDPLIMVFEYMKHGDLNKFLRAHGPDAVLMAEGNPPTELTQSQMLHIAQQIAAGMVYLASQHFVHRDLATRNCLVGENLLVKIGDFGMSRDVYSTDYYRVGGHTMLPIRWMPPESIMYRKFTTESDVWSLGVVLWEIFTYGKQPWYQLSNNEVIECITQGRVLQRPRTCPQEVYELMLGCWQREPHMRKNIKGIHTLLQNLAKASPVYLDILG
Protocol: as §1

[40] = molecular target: T40, DYRK1A (Homo sapiens, UniProt Q13627); conditions: 35 at 1 µM; read-out: % inhibition
T40 construct: purchased Eurofins DiscoverX (KINOMEscan)
Protocol: as §1

[41] = molecular target: T41, CDKL3 (Homo sapiens, UniProt Q8IVW4); conditions: 35 at 1 µM; read-out: % inhibition
T41 construct: purchased Eurofins DiscoverX (KINOMEscan)
Protocol: as §1

[42] = molecular target: T42, SYK (Homo sapiens, UniProt P43405); conditions: 35 at 1 µM; read-out: % inhibition
T42 construct: purchased Eurofins DiscoverX (KINOMEscan)
Protocol: as §1

[43] = molecular target: T43, DDR1 (Homo sapiens, UniProt Q08345); conditions: 35 at 1 µM; read-out: % inhibition
T43 construct: purchased Eurofins DiscoverX (KINOMEscan)
Protocol: as §1

T1 sequence (O96017 whole entry): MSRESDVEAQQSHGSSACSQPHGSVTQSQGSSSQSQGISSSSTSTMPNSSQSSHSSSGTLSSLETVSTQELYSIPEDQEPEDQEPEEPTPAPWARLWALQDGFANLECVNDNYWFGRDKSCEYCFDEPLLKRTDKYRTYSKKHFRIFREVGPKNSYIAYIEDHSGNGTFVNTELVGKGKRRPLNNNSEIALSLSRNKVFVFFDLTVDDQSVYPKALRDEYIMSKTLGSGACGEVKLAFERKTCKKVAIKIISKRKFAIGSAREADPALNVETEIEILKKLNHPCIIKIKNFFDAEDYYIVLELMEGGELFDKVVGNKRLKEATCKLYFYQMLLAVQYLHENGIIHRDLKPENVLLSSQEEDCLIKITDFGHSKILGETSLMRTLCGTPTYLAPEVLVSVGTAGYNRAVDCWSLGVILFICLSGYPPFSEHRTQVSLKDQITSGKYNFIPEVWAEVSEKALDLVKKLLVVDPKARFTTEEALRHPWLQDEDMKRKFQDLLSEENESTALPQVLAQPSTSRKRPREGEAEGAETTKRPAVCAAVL

Brc1ccc2nccc(Nc3ccc4cn[nH]c4c3)c2c1 [Compound 35, 6-Bromo-N-(1H-indazol-6-yl)quinolin-4-amine]
activity at 1 µM [1]: 65% | activity at 1 µM [2]: 90% | activity at 1 µM [3]: 100% | activity at 1 µM [4]: 100% | activity at 1 µM [5]: 100% | activity at 1 µM [6]: 100% | activity at 1 µM [7]: 100% | activity at 1 µM [8]: 100% | activity at 1 µM [9]: 100% | activity at 1 µM [10]: 63% | activity at 1 µM [11]: 86% | activity at 1 µM [12]: 100% | activity at 1 µM [13]: 100% | activity at 1 µM [14]: 76% | activity at 1 µM [15]: 100% | activity at 1 µM [16]: 100% | activity at 1 µM [17]: 100% | activity at 1 µM [18]: 100% | activity at 1 µM [19]: 100% | activity at 1 µM [20]: 69% | activity at 1 µM [21]: 100% | activity at 1 µM [22]: 76% | activity at 1 µM [23]: 86% | activity at 1 µM [24]: 100% | activity at 1 µM [25]: 46% | activity at 1 µM [26]: 100% | activity at 1 µM [27]: 100% | activity at 1 µM [28]: 100% | activity at 1 µM [29]: 88% | activity at 1 µM [30]: 93% | activity at 1 µM [31]: 100% | activity at 1 µM [32]: 100% | activity at 1 µM [33]: 100% | activity at 1 µM [34]: 100% | activity at 1 µM [35]: 100% | activity at 1 µM [36]: 100% | activity at 1 µM [37]: 94% | activity at 1 µM [38]: 76% | activity at 1 µM [39]: 85% | activity at 1 µM [40]: 77% | activity at 1 µM [41]: 100% | activity at 1 µM [42]: 89% | activity at 1 µM [43]: 79%
